From ChEMBL document CHEMBL1649161, “Pharmacokinetics of EDP-420 after ascending single oral doses in healthy adult volunteers” (Antimicrob Agents Chemother, 2009)

Legend:
Format in all cases: ADME, organism-based
[1] = Terminal half life in healthy human at 500 mg, po administered as single dose; settings: in vivo
[2] = AUC (0 to infinity) in healthy human at 500 mg, po administered as single dose; parameters: dose 500 mg, route oral, time infinity; settings: plasma
[3] = Half life in healthy human at 400 mg, po administered as single dose; settings: in vivo
[4] = AUC (0 to infinity) in healthy human at 400 mg, po administered as single dose; parameters: dose 400 mg, time infinity, route oral; settings: plasma
[5] = Cmax in healthy human at 400 mg, po administered as single dose; parameters: dose 400 mg, route oral; settings: in vivo
[6] = Cmax in healthy human at 500 mg, po administered as single dose; parameters: dose 500 mg, route oral; settings: in vivo
[7] = Terminal half life in healthy human at 400 mg, po administered as single dose; settings: in vivo
[8] = Distribution half life in healthy human at 400 mg, po administered as single dose; settings: in vivo

Structure (SMILES)	AUC(0-inf) [2] [ng·h/mL]	AUC(0-inf) [4] [ng·h/mL]	Cmax [5] [ng/mL]	further results
CC[C@H]1OC(=O)[C@H](C)[C@@H](O[C@H]2C[C@@](C)(OC)[C@@H](O)[C@H](C)O2)[C@H](C)[C@@H](O[C@@H]2O[C@H](C)C[C@H](N(C)C)[C@H]2O)[C@](C)(O)C[C@@H](C)CN(C)[C@H](C)[C@@H](O)[C@]1(C)O [AZITHROMYCIN]	3390	–	–	half-life [1]: 2100 min
CC[C@H]1OC(=O)[C@H](C)[C@@H](O[C@H]2C[C@@](C)(OC)[C@@H](O)[C@H](C)O2)[C@H](C)[C@@H](O[C@@H]2O[C@H](C)C[C@H](N(C)C)[C@H]2O)[C@](C)(OC)C[C@@H](C)C(=O)[C@H](C)[C@@H](O)[C@]1(C)O [CLARITHROMYCIN]	–	7520	780	half-life [3]: 233 min
CC[C@H]1OC(=O)[C@H](C)[C@@H](O[C@H]2C[C@@](C)(OC)[C@@H](O)[C@H](C)O2)[C@H](C)[C@@H](O[C@@H]2O[C@H](C)C[C@H](N(C)C)[C@H]2O)[C@](C)(O)C[C@@H](C)C(=O)[C@H](C)[C@@H](O)[C@]1(C)O [ERYTHROMYCIN]	7700	–	–	Cmax [6]: 2000 ng/mL
CC[C@H]1OC(=O)[C@H](C)C(=O)[C@H](C)[C@@H](O[C@@H]2O[C@H](C)C[C@H](N(C)C)[C@H]2O)[C@](C)(OC)C[C@@H](C)C(=O)[C@H](C)[C@H]2N(CCCCn3cnc(-c4cccnc4)c3)C(=O)O[C@]12C [TELITHROMYCIN]	–	3090	800	half-life [7]: 401 min; half-life [8]: 128 min
